Tests used:
[1] = tested on: HSPCs; assay: Mobilization of HSPCs into peripheral blood (CFU-HPC assay); assay type: in vivo, mice
Description: Mice were administered the β-adrenergic agonists isoproterenol (10 mg/kg i.p.), clenbuterol (5 mg/kg i.p.) and BRL 37344 (10 mg/kg i.p.), the cannabinoid receptor agonists ACEA (10 mg/kg i.p.) and GP1a (5 mg/kg i.p.), or vehicle either on 4 consecutive days or 2 hours prior to the cull. 1 hour after the last injection, mice were administered the CXCR4 antagonist AMD3100 (5 mg/kg i.p.) or vehicle. 1 hour later their blood was collected via cardiac puncture for enumeration of circulating CFU-HPCs and CFU-Fs. Mice were administered murine G-CSF (100 μg/kg i.p.) or vehicle on 4 consecutive days. On day 5, blood was collected via cardiac puncture for enumeration of circulating HSPCs.
(§1) Harvested peripheral blood or perfusate was red blood cell-lysed and 1×10^5 cells were added to tissue culture-treated petri dishes containing 1 ml of Methocult™ (M3434; StemCell Technologies) to select for CFU-HPCs. Cultures were incubated at 37° C. and quantified on day 12. Similarly, 1×10^6 bone marrow cells harvested by bone marrow flush of the hind limb femur were plated for CFU-HPCs.

[2] = tested on: HSPCs; assay: as above; assay type: in vivo; settings: mice pre-treated with 0-30 mg/kg BRL37344 for 4 days
[3] = tested on: CXCL12; assay: CXCL12 ELISA of bone marrow supernatant; assay type: in vivo, mice; settings: 4 days of treatment, bone marrow 2 hours after final injection
Description: (A) Mice were pretreated with BRL 37344 (β3), G-CSF or vehicle (VEH) once daily on 4 consecutive days. 2 hours after the final BRL 37344 injection or 24 hours after the final G-CSF injection, bone marrow was collected for quantification of CXCL12 levels (n=16 and n=6-8, respectively). (B) Bone marrow cells were collected from naïve mice and were treated in vitro with clenbuterol (β2), BRL 37344 (β3) or vehicle (VEH). CFU-Fs per 10^6 cells are shown (n=6 mice per group). (C) Mice were pre-treated with AM 251, AM 630, BRL 37344 (β3) or vehicle (VEH) once daily on 4 consecutive days. 2 hours after the last injection, bone marrow cells were collected for enumeration of CFU-Fs. CFU-Fs per 10^6 cells are shown (n=6-8 mice per group). (D) CB1 receptor antagonist AM 251 (CB1l, CB2 receptor antagonist AM 630 (CB2l, BRL 37344 (β3) or vehicle. Data represented as mean±SEM. (A) **p<0.01 (unpaired student t-test) and (B-D) *p<0.05, **p<0.01, ***p<0.001 (one-way ANOVA).
CXCL12 content in blood plasma and bone marrow supernatant was quantified using CXCL12 capture (MAB350) and detection (BAF351) antibodies (RnD systems), and the assay was performed according to the manufacturers' instructions. Recombinant mouse CXCL12 (RnD systems) was used to generate a standard curve.

[4] = tested on: CFU-Fs (MSCs); assay: In situ perfusion of mouse hind limb, CFU-Fs in perfusate; assay type: in vivo, mice; settings: four day pretreatment, b3 adrenergic agonist in combination with FAAH inhibitor
Description: (§2) Mice were administered BRL 37344 (10 mg/kg i.p.) or vehicle on 4 consecutive days. 1 hour after the last injection, the mice were anaesthetized. The femoral vein and artery were exposed and cannulated in situ immediately after the hind limb was isolated by occlusion of the surrounding arteries as previously described (Pitchford et al, 2009; Pitchford et al, 2010). Perfusion buffer was infused via the arterial cannula and removed from the venous cannula using a Minipuls Peristaltic Pump (Anachem). The hind limb was initially infused with AMD3100 (0.1 mM) or vehicle for 10 minutes using an infusion/withdrawal pump (Harvard Instruments) and was further perfused for 50 minutes with perfusion buffer (Pitchford et al, 2010). The perfusate was collected over 60 minutes and then centrifuged and resuspended in DMEM (Gibco) +20% fetal bovine serum for enumeration of CFU-HPCs and CFU-Fs.
Harvested peripheral blood or perfusate was red blood cell-lysed and 1×10^6 cells were added to tissue culture-treated 6-well plates containing 3 ml of Mesencult™ (05502; StemCell Technologies) to select for CFU-Fs. Similarly, 1×10^6 bone marrow cells harvested by bone marrow flush of the hind limb femur were plated for CFU-Fs. Cultures were incubated at 37° C. and media was changed on day 7. Bone marrow-derived CFU-Fs were enumerated on day 13 and blood- and perfusate-derived CFU-Fs were enumerated on day 21. Blood derived-CFU-Fs were further expanded and assessed for mesenchymal lineage markers by flow cytometry and following CD45 depletion (flow cytometry sorting of CD45 negative for mesenchymal trilineage differentiation (Supplemental Experimental Procedures).

[5] = tested on: HPCs; assay: In situ perfusion of mouse hind limb, CFU-HPCs in perfusate; assay type: in vivo, mice; settings: four day pretreatment, b3 adrenergic agonist in combination with FAAH inhibitor
Description: as §2, §1

[6] = tested on: CFU-Fs (MSPCs); assay: Mobilization of MSPCs into peripheral blood (CFU-F assay); assay type: in vivo, mice
[7] = 2 h versus 4 d pre-treatment, then AMD3100
[8] = pre-treated once daily for 4 days, then AMD3100, blood 1 hour later

## C[C@H](Cc1ccc(OCC(=O)O)cc1)NC[C@H](O)c1cccc(Cl)c1 [BRL37344]
[1]; [7]
  pre-treatment time needed for HSPC mobilization: required the pre-treatment of mice over 4 days to see this effect
[1]; [8]
  circulating HSPC numbers: significantly boosted circulating numbers of HSPCs and CFU-Fs as compared to that observed with isoproterenol and AMD3100 in combination
[2]
  dose dependence of HSPC mobilization in response to the CXCR4 antagonist: dose response relationship
[3]
  levels of CXCL12 in the bone marrow: had no effect on levels of CXCL12 in the bone marrow
[4]
  MSC egress from the bone marrow in response to infusion of the CXCR4 antagonist: significantly enhanced both HPC and MSC egress from the bone marrow
[5]
  HPC egress from the bone marrow in response to infusion of the CXCR4 antagonist: significantly enhanced both HPC and MSC egress from the bone marrow
[6]; [7]
  pre-treatment time needed for CFU-F mobilization: required the pre-treatment of mice over 4 days to see this effect
[6]; mouse, in vivo
  dose dependence of CFU-F mobilization in response to the CXCR4 antagonist: dose response relationship
[6]; [8]
  circulating CFU-Fs: significantly boosted circulating numbers of HSPCs and CFU-Fs as compared to that observed with isoproterenol and AMD3100 in combination

Source: patent US20170355959A1, “METHODS FOR MOBILISING POPULATIONS OF STEM CELLS” (Imperial Innovations Limited, priority 2014, published 2017)
